US20020137054A1, “AXOR35, a G-protein coupled receptor” (SmithKline Beecham Corporation & SmithKline Beecham plc, priority 1999, published 2002)
Where a name gives a salt, the structure may show the parent alone.

Experiments:
AXOR35 [1] = target: T1, AXOR35 (Homo sapiens, UniProt Q9H3N8); details: calcium mobilization response, method analogous to Example 8
AXOR35 [2] = target: T1, AXOR35; details: histamine challenge of control cells transiently expressing AXOR35
Protocol: Prior to challenge with histamine, cells transiently expressing AXOR35 are treated with increasing concentrations of test compound. […] Antagonist activity is calculated as the concentration of test compound required to inhibit 50% of a maximum histamine response (IC50).

melting point | ligand for AXOR35 (AXOR35 [1]) | EC80 (AXOR35 [2]) | Structure (SMILES)
264 to 266 °C |  |  | NCC(c1ccccc1)c1cnc[nH]1 (stereo not shown) (as salt: hydrochloride)
254 to 256 °C |  |  | NCC(Cc1ccc(Cl)cc1)c1c[nH]cn1 (stereo not shown) (as salt: hydrochloride)
 | ligands for AXOR35 | 100 nM | NCCc1c[nH]cn1 [histamine, 1H-imidazole-4-ethanamine]
